Where two headings read alike, the source gives them in different places.
Test system: Escherichia coli (ATCC25922) or Staphylococcus aureus (ATCC25923)
Assay: Antibacterial MIC, microdilution method in Mueller-Hinton medium
Type: cell-based
Conditions: Escherichia coli, 18 h, read-out: Potency (MIC)
Method: The antibacterial activity of the Formula I compounds was evaluated against standard bacterial strains by determining the minimal inhibitory concentration (MIC) to block growth. Each drug was assayed by the microdilution method in Mueller-Hinton medium, as recommended by the National Committee for Clinical Laboratory Standards. Approved Standard M7-A5: Methods for Dilution Antimicrobial Susceptibility Tests for Bacteria That Grow Aerobically 5th Ed. (National Committee for Clinical Laboratory Standards, Wayne, Pa., 2000). The tested bacterial strains included Escherichia coli (American Type Collection ATCC25922), Staphylococcus aureus (ATCC25923), and Pseudomonas aeruginosa (ATCC27853). Two-fold serial dilutions of each compound ranging from 64 to 0.5 μg/ml were tested in duplicate. The MIC was determined as the lowest concentration of each compound that prevented bacterial growth after 18 hours of incubation at 35° C. […] The mass of each compound in the Table was confirmed by LC-MS.

[1] = MIC in E. coli or S. aureus, two-fold serial dilutions 64 to 0.5 μg/ml in duplicate, 18 hours of incubation at 35° C.

Compound: Cc1cc(=O)oc2cc(Nc3nc(N4C[C@H](N)C[C@H](N)C4)nc(N4CC[C@H](O)[C@H](CN)C4)n3)ccc12 [7-[4-((3R,4S)-3-Aminomethyl-4-hydroxy-piperidin-1-yl)-6-((3R,5S)-3,5-diamino-piperidin-1-yl)-[1,3,5]triazin-2-ylamino]-4-methyl-chromen-2-one]
- MIC: > 64 µg/mL

Compound: Cc1cc(C)c(S(=O)(=O)Nc2ccc(Nc3nc(N4CCCCC4)nc(N4CCCCC4)n3)cc2O)c(C)c1.Cl [N-[3-hydroxy-(2,4,6-trimethyl-benzenesulfonylamino)-phenyl]-4,6-Bis-((3R,5S)-3,5-diamino-pperidin-1-yl)-[1,3,5]triazine-2-amine]
- MIC [1]: < 64 µg/mL

Compound: Cc1ccc(S(=O)(=O)N(Cc2ccccc2)c2ccc(Nc3nc(N(CCN)CCN)nc(N4C[C@H](N)C[C@H](N)C4)n3)c(O)c2)cc1 [N-Benzyl-N-{4-[4-[bis-(2-amino-ethyl)-amino]-6-((3R,5S)-3,5-diamino-piperidin-1-yl)-[1,3,5]triazin-2-ylamino]-3-hydroxy-phenyl}-4-methyl-benzenesulfonamide]
- MIC: < 64 µg/mL

Compound: COc1nc(Nc2ccc(NC(=O)c3ccc(Cl)cc3)c(O)c2)nc(N2C[C@H](N)C[C@H](N)C2)n1 [4-Chloro-N-{4-[4-((3R,5S)-3,5-diamino-piperidin-1-yl)-6-methoxy-[1,3,5]triazin-2-ylamino]-2-hydroxy-phenyl}-benzamide]
- MIC: < 16 µg/mL

Compound: N[C@@H]1C[C@H](N)CN(c2nc(Nc3ccc(-n4c5ccccc5c5ccccc54)cc3)nc(N3C[C@H](N)C[C@H](N)C3)n2)C1 [N-(4-carbazol-9-yl-phenyl)-4,6-Bis-((3R,5S)-3,5-diamino-piperidin-1-yl)-[1,3,5]triazine-2-amine]
- MIC: < 16 µg/mL

Compound: COc1nc(Nc2ccc(N(Cc3ccccc3)S(=O)(=O)c3ccc(C)cc3)c(O)c2)nc(N2CCCCC2)n1.Cl [N-Benzyl-N-{4-[4-((3R,5S)-3,5-diamino-piperidin-1-yl)-6-methoxy-[1,3,5]triazin-2-ylammino]-2-hydroxy-phenyl}-4-methyl-benzenesulfonamide]
- MIC [1]: < 16 µg/mL

Compound: Cc1cc(=O)oc2cc(Nc3nc(N4C[C@H](N)C[C@H](N)C4)nc(N4CC[C@H](O)[C@@H]4CN)n3)ccc12 [7-[4-((2S,3S)-2-Aminomethyl-3-hydroxy-pyrrolidin-1-yl)-6-((3R,5S)-3,5-diamino-piperidin-1-yl)-[1,3,5]triazin-2-ylamino]-4-methyl-chromen-2-one]
- MIC [1]: > 64 µg/mL

Compound: CCN(CC)c1ccc(Nc2nc(N3C[C@H](N)C[C@H](N)C3)nc(N3C[C@H](N)C[C@H](N)C3)n2)cc1 [N-(4-diethylamino-phenyl)-4,6-Bis-((3R,5S)-3,5-diamino-piperidin-1-yl)-[1,3,5]triazine-2-amine]
- MIC: > 64 µg/mL

Compound: N[C@@H]1C[C@H](N)CN(c2nc(Nc3ccc(NC(=O)c4ccc(Cl)cc4O)c(F)c3)nc(N3C[C@H](N)C[C@H](N)C3)n2)C1 [N-[4-(4-chloro-2-hydroxy-benzoylamino)-3-fluoro-phenyl]-4,6-Bis-((3R,5S)-3,5-diamino-piperidin-1-yl)-[1,3,5]triazine-2-amine]
- MIC: < 16 µg/mL

Compound: Cc1cc(=O)oc2cc(Nc3nc(N(CCN)CCN)nc(N4C[C@H](N)C[C@H](N)C4)n3)ccc12 [7-[4-[Bis-(2-amino-ethyl)-amino]-6-((3R,5S)-3,5-diamino-piperidin-1-yl)-[1,3,5]triazin-2-ylamino]-4-methyl-chromen-2-one]
- MIC: > 64 µg/mL

Compound: Cl.O=C(Nc1ccc(Cl)cc1Cl)c1ccc(Nc2nc(N3CCCCC3)nc(N3CCCCC3)n2)cc1O [N-[4-(2,4-dichloro-phenylcarbamoyl)-3-hydroxy-phhenyl]-4,6-Bis-((3R,5S)-3,5-diamino-piperidin-1-yl)-[1,3,5]triazine-2-amine]
- MIC [1]: < 16 µg/mL

Compound: Cl.N[C@@H]1C[C@H](N)CN(c2nc(Nc3ccccc3)nc(N3C[C@H](N)C[C@H](N)C3)n2)C1 [N-phenyl-44,6-Bis-((3R,5S)-3,5-diamino-piperidin-1-yl)-[1,3,5]triazine-2-amine]
- MIC [1]: > 64 µg/mL

Compound: N[C@@H]1C[C@H](N)CN(c2nc(Nc3cccc(OC(F)(F)F)c3)nc(N3C[C@H](N)C[C@H](N)C3)n2)C1 [N-(3-trifluoromethoxy-phenyl)-4,6-Bis-((3R,5S)-3,5-diamino-piperidin-1-yl)-[1,3,5]triazine-2-amine]
- MIC [1]: > 64 µg/mL

Compound: Cc1cc(=O)oc2cc(Nc3nc(N4C[C@H](N)C[C@H](N)C4)nc(N4C[C@H](O)C[C@@H](O)C4)n3)ccc12 [7-[4-((3R,5S)-3,5-Diamino-piperidin-1-yl)-6-((3R,5R)-3,5-dihydroxy-piperidin-1-yl)-[1,3,5]triazin-2-ylamino]-4-methyl-chromen-2-one]
- MIC: > 64 µg/mL

Compound: Cc1ccc(C(=O)Nc2ccc(Nc3nc(N4C[C@H](N)C[C@H](N)C4)nc(N4C[C@H](N)C[C@H](N)C4)n3)cc2O)cc1 [N-[3-hydroxy-4-(4-methyl-benzoylamino)-phenyl]-4,6-Bis-((3R,5S)-3,5-diamino-piperidin-1-yl)-[1,3,5]triazine-2-amine]
- MIC: < 16 µg/mL

Compound: COc1ccccc1C(=O)Nc1ccc(Nc2nc(N3C[C@H](N)C[C@H](N)C3)nc(N3C[C@H](N)C[C@H](N)C3)n2)cc1O [N-[3-hydroxy-4-(2-methoxy-benzoylamino)-phenyl]-4,6-Bis-((3R,5S)-3,5-diamino-piperidin-1-yl)-[1,3,5]triazine-2-amine]
- MIC: < 16 µg/mL

Compound: Cl.O=C(Nc1cc(C(F)(F)F)ccc1Cl)c1ccc(Nc2nc(N3CCCCC3)nc(N3CCCCC3)n2)cc1O [N-[4-(2-chloro-5-trifluoromethyl-phenylcarbamoyl)-3-hydroxy-phenyl]-4,6-Biss-((3R,5S)-3,5-diamino-piperidin-1-yl)-[1,3,5]triazine-2-amine]
- MIC [1]: < 64 µg/mL

Compound: COc1nc(Nc2ccc3c(C)cc(=O)oc3c2)nc(N2CCCCC2)n1.Cl [7-[4-((3R,5S)-3,5-DSiamino-piperidin-1-yl)-6-methoxy-[1,3,5]triazin-2-ylamino]-4-methyl-chromen-2-one]
- MIC [1]: > 64 µg/mL

Compound: Cl.O=C(Nc1ccccc1Cl)c1ccc(Nc2nc(N3CCCCC3)nc(N3CCCCC3)n2)cc1O [N-[4-(2-choro-phenylcarbamoyl)-3-hydroxy-phenyl]-4,6-Bis-((3R,5S)-3,5-diamino-piperidin-1-yl)-[1,3,5]triazine-2-amine]
- MIC [1]: < 64 µg/mL

Compound: N[C@@H]1C[C@H](N)CN(c2nc(Nc3ccc(NC(=O)c4ccc(Cl)cc4)c(O)c3)nc(N3CCC(N4CCCC4)CC3)n2)C1 [4-Chloro-N-{4-[4-((3S,5R)-3,5-diamino-piperidin-1-yl)-6-(4-pyrrolidin-1-yl-piperidin-1-yl)-[1,3,5]triazin-2-ylamino]-2-hydroxy-phenyl}-benzamide]
- MIC: < 64 µg/mL

Compound: COc1nc(Nc2ccc(C(=O)CC(=O)Nc3ccc(F)c(F)c3)cc2)nc(N2C[C@H](N)C[C@H](N)C2)n1 [3-{4-[4-((3R,5S)-3,5-Diamino-piperidin-1-yl)-6-methoxy-[1,3,5]triazin-2-ylamino]-phenyl}-N-(3,4-difluoro-phenyl)-3-oxo-propionamide]
- MIC: < 16 µg/mL

Compound: Cl.Nc1ccc(Nc2nc(N3C[C@H](N)C[C@H](N)C3)nc(N3C[C@H](N)C[C@H](N)C3)n2)cc1 [N-(4-amino-phenyl)-4,6-Biss-((3R,5S)-3,5-diamino-piperidin-1-yl)-[1,3,5]triazine-2-amine]
- MIC [1]: > 64 µg/mL

Compound: N[C@@H]1C[C@H](N)CN(c2nc(Nc3ccc(C(=O)Nc4cc(Cl)c(O)c(Cl)c4)c(O)c3)nc(N3C[C@H](N)C[C@H](N)C3)n2)C1 [N-[4-(3,5-dichloro-4-hydroxy-phenylcarbamoyl)-3-hydroxy-phenyl]-4,6-Bis-((3R,5S)-3,5-diamino-piperidin-1-yl)-[1,3,5]triazine-2-amine]
- MIC: < 64 µg/mL

Compound: N[C@@H]1C[C@H](N)CN(c2nc(Nc3ccc(NS(=O)(=O)c4cc(Cl)cc(Cl)c4O)c(O)c3)nc(N3C[C@H](N)C[C@H](N)C3)n2)C1 [N-[4-(3,5-dichloro-2-hydroxy-benzenesulfonylamino)-3-hydroxy-phenyl]-4,6-Bis-((3R,5S)-3,5-diamino-piperidin-1-yl)-[1,3,5]triazine-2-amine]
- MIC: < 16 µg/mL

Compound: Cc1ccc(S(=O)(=O)N(Cc2ccccc2)c2ccc(Nc3nc(N4C[C@H](N)C[C@H](N)C4)nc(N4C[C@H](O)C[C@H]4CN)n3)cc2O)cc1 [N-{4-[4-((2S,4R)-2-Aminomethyl-4-hydroxy-pyrrolidin-1-yl)-6-((3R,5S)-3,5-diamino-piperidin-1-yl)-[1,3,5]triazin-2-ylamino]-2-hydroxy-phenyl}-N-benzyl-4-methyl-benzenesulfonamide]
- MIC: < 64 µg/mL

Compound: N=C(N)Nc1ccc(Nc2nc(N3CCCCC3)nc(N3CCCCC3)n2)cc1 [N-(4-quanidino-phenyl)-4,6-Bis-((3R,5S)-3,5-diamino-piperidin-1-yl)-[1,3,5]triazine-2-amine]
- MIC [1]: < 64 µg/mL

Compound: N[C@@H]1C[C@H](N)CN(c2nc(Nc3ccc(O)cc3)nc(N3C[C@H](N)C[C@H](N)C3)n2)C1 [N-(4-hydroxy-phenyl)-4,6-Bis-((3R,5S)-3,5-diamino-piperidin-1-yl)-[1,3,5]triazine-2-amine]
- MIC [1]: > 64 µg/mL

Compound: CSc1nnc(Nc2nc(N3C[C@H](N)C[C@H](N)C3)nc(N3C[C@H](N)C[C@H](N)C3)n2)s1.Cl [N-(5-methylsulfanyl-[1,3,4]thiadiazol-2-yl)-4,6-Bis-((3R,5S)-3,5-diamino-piperidin-1-yl)-[1,3,5]triazine-2-amine]
- MIC [1]: > 64 µg/mL

— patent US7223759B2, “Antibacterial 3,5-diaminopiperidine-substituted aromatic and heteroaromatic compounds” (Anadys Pharmaceuticals, Inc., priority 2003, dated 2007)
